According to patent US11584714B2 (priority 2018, dated 2023):
Counter-ions that a name gives are not always drawn. Like-named read-outs stand apart in the source and are kept apart here.

What was measured:
Format in all cases: biochemical
[1] = molecular target: mMASP-2 (Mus musculus (Mouse), UniProt Q91WP0); test: Enzymatic inhibition of mMASP-2
[2] = molecular target: MASP-2 (CCP1-CCP2-SP) (Homo sapiens (Human), UniProt O00187); test: biochemical; details: for MASP-2 vs. thrombin selectivity: selectivity for MASP-2 inhibition versus thrombin
[3] = molecular target: human α-thrombin (Homo sapiens (Human), UniProt P00734); test: Enzymatic assay for thrombin (Boc-VPR-AMC substrate)

mMASP-2, sequence (Q91WP0 20-685): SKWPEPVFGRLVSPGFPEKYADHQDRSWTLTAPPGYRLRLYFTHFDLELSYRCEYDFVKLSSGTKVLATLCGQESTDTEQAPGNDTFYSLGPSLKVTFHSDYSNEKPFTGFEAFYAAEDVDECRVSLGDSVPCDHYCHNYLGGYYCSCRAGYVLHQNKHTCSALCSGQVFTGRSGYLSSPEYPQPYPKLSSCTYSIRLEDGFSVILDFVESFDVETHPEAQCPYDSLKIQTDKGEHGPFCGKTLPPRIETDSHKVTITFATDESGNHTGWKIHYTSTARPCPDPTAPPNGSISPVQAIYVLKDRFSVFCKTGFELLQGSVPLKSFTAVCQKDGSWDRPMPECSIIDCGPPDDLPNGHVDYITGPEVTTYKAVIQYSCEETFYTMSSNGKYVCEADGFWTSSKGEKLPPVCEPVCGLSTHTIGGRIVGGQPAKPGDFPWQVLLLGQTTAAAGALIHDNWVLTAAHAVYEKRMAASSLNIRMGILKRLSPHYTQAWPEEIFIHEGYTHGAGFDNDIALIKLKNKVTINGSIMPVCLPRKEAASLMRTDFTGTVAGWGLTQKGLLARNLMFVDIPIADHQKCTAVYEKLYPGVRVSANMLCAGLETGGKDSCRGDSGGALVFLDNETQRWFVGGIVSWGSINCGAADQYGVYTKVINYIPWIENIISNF
MASP-2 (CCP1-CCP2-SP), sequence (O00187 445-686): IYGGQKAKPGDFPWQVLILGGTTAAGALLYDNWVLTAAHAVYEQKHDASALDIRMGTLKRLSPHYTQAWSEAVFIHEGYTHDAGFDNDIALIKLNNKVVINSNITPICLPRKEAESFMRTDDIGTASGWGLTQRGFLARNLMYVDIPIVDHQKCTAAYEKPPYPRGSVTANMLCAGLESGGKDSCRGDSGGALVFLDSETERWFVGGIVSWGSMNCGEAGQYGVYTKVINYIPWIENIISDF

| SMILES | Ki ([1]; read-out: mMASP-2 Ki) | Ki ([2]; read-out: MASP-2 Ki) | MASP-2 vs. thrombin selectivity [2] | Ki ([3]; read-out: Thrombin Ki) | Ki [2] | Ki ([3]; Thrombin Ki (μM)) | Ki [1] |
| --- | --- | --- | --- | --- | --- | --- | --- |
| Cc1nc(N)ccc1CNC(=O)[C@H](C)NC(=O)[C@H]1C[C@H](Cc2ccc(-c3cccnc3)cc2)CN1 [compound 1357, (2R,4S)—N—((S)-1-(((6-Amino-2-methylpyridin-3-yl)methyl)amino)-1-oxopropan-2-yl)-4-(4-(pyridin-3-yl)benzyl)pyrrolidine-2-carboxamide Di-trifluoroacetate salt] | < 0.5 µM | < 0.5 µM | **** (≥100-fold) | > 25 µM | – | – | – |
| C[C@H](NC(=O)[C@H]1C[C@H](c2ccccc2)CN1)C(=O)NCc1ccc(C(N)=O)nc1 [compound 1273, 5-(((S)-2-((2R,4R)-4-Phenylpyrrolidine-2-carboxamido)propanamido)methyl)picolinamide] | 10 to 25 µM | – | – | > 25 µM | 10 to 25 µM | – | – |
| C[C@H](NC(=O)[C@H]1C[C@@H](c2cccc(C(F)(F)F)c2)CN1)C(=O)NCc1ccc(C(=N)N)cc1 [compound 1276, (2R,4S)—N—((S)-1-((4-Carbamimidoylbenzyl)amino)-1-oxopropan-2-yl)-4-(3-(trifluoromethyl)phenyl)pyrrolidine-2-carboxamide] | < 0.5 µM | < 0.5 µM | *** (≥25 to <100-fold) | – | – | 0.5 to 2.5 µM | – |
| CC(=O)O/N=C(\N)c1ccc(CNC(=O)[C@H](C)NC(=O)[C@H]2C[C@H](c3ccccc3)CN2)cc1 [compound 1264, (2R,4R)—N—((S)-1-((4-((Z)-N′-Acetoxycarbamimidoyl)benzyl)amino)-1-oxopropan-2-yl)-4-phenylpyrrolidine-2-carboxamide] | – | – | – | > 25 µM | 2.5 to 10 µM | – | 10 to 25 µM |
| C[C@H](NC(=O)[C@H](N)CCc1ccccc1)C(=O)NCc1cc(C#N)ccc1O [compound 1314, (R)-2-Amino-N—((S)-1-((5-cyano-2-hydroxybenzyl)amino)-1-oxopropan-2-yl)-4-phenylbutanamide Trifluoroacetate salt] | > 25 µM | – | * (≥1.0 to <5.0-fold) | > 25 µM | 10 to 25 µM | – | – |
| COc1ccc(-c2c[nH]c(C(=O)N[C@@H](C)C(=O)NCc3ccc(C(=N)N)cc3)c2)cc1 [compound 1238, (S)—N-(1-((4-Carbamimidoylbenzyl)amino)-1-oxopropan-2-yl)-4-(4-methoxyphenyl)-1H-pyrrole-2-carboxamide] | < 0.5 µM | < 0.5 µM | *** (≥25 to <100-fold) | – | – | 2.5 to 10 µM | – |
| CCc1nc(N)ccc1CNC(=O)[C@H](C)NC(=O)[C@H]1C[C@H](c2ccccc2)CN1 [compound 1323, (2R,4R)—N—((S)-1-(((6-Amino-2-ethylpyridin-3-yl)methyl)amino)-1-oxopropan-2-yl)-4-phenylpyrrolidine-2-carboxamide Dihydrochloride] | 10 to 25 µM | > 25 µM | – | > 25 µM | – | – | – |
| Cc1nc(N)ccc1CNC(=O)[C@H](C)NC(=O)[C@@H](CCc1ccccc1)NCCCc1cccc(O)c1 [compound 1319, (R)—N—((S)-1-(((6-Amino-2-methylpyridin-3-yl)methyl)amino)-1-oxopropan-2-yl)-2-((3-(3-hydroxyphenyl)propyl)amino)-4-phenylbutanamide Dihydrochloride salt] | 10 to 25 µM | < 0.5 µM | ** (≥5.0 to <25-fold) | – | – | 2.5 to 10 µM | – |
| C[C@H](NC(=O)[C@H]1C[C@H](c2ccccc2)CN1)C(=O)NCc1cc(Cl)cc(Cl)c1O [compound 1395, (2R,4R)—N—((S)-1-((3,5-dichloro-2-hydroxybenzyl)amino)-1-oxopropan-2-yl)-4-phenylpyrrolidine-2-carboxamide Trifluoroacetate] | 2.5 to 10 µM | – | – | > 25 µM | 0.5 to 2.5 µM | – | – |
| COc1cc2ccccc2cc1C[C@@H]1CN[C@@H](C(=O)N[C@@H](C)C(=O)NCc2ccc(N)nc2C)C1 [compound 1478, (2R,4S)—N—((S)-1-(((6-Amino-2-methylpyridin-3-yl)methyl)amino)-1-oxopropan-2-yl)-4-((3-methoxynaphthalen-2-yl)methyl)pyrrolidine-2-carboxamide Dihydrochloride] | < 0.5 µM | < 0.5 µM | **** (≥100-fold) | – | – | 10 to 25 µM | – |
| Cc1cc(Br)cc(CNC(=O)[C@H](C)NC(=O)[C@H](N)CCc2ccccc2)c1O [compound 1355, (R)-2-amino-N—((S)-1-((5-bromo-2-hydroxy-3-methylbenzyl)amino)-1-oxopropan-2-yl)-4-phenylbutanamide Trifluoroacetate salt] | 10 to 25 µM | < 0.5 µM | – | > 25 µM | – | – | – |
| Cc1cccc(C[C@@H]2CN[C@@H](C(=O)N[C@@H](C)C(=O)NCc3cc(Cl)cc(C)c3O)C2)c1 [compound 1369, (2R,4S)—N—((S)-1-((5-Chloro-2-hydroxy-3-methylbenzyl)amino)-1-oxopropan-2-yl)-4-(3-methylbenzyl)pyrrolidine-2-carboxamide Hydrochloride] | < 0.5 µM | < 0.5 µM | **** (≥100-fold) | > 25 µM | – | – | – |
| C[C@H](NC(=O)[C@H]1C[C@@H](c2cccc(C#N)c2)CN1)C(=O)NCc1ccc(C(=N)N)cc1 [compound 1278, (2R,4S)—N—((S)-1-((4-Carbamimidoylbenzyl)amino)-1-oxopropan-2-yl)-4-(3-cyanophenyl)pyrrolidine-2-carboxamide] | < 0.5 µM | < 0.5 µM | *** (≥25 to <100-fold) | – | – | 2.5 to 10 µM | – |
| C[C@H](NC(=O)[C@H]1C[C@H](Cc2ccccc2-c2ccccc2)CN1)C(=O)NCc1cnc2[nH]cc(Cl)c2c1 [compound 1393, (2R,4S)-4-([1,1′-Biphenyl]-2-ylmethyl)-N-((S)-1-(((3-chloro-1H-pyrrolo[2,3-b]pyridin-5-yl)methyl)amino)-1-oxopropan-2-yl)pyrrolidine-2-carboxamide Di-trifluoroacetate salt] | < 0.5 µM | < 0.5 µM | * (≥1.0 to <5.0-fold) | < 0.5 µM | – | – | – |
| Cc1cccc([C@H]2CN[C@@H](C(=O)N[C@@H](C)C(=O)NCc3ccc(N)nc3C)C2)c1 [compound 1257, (2R,4S)—N—((S)-1-(((6-Amino-2-methylpyridin-3-yl)methyl)amino)-1-oxopropan-2-yl)-4-(m-tolyl)pyrrolidine-2-carboxamide] | 10 to 25 µM | < 0.5 µM | *** (≥25 to <100-fold) | > 25 µM | – | – | – |
| Cc1nc(N)ccc1CNC(=O)[C@H](C)NC(=O)[C@H]1C[C@H](C2(c3ccccc3)CC2)CN1 [compound 1481, (2R,4R)—N—((S)-1-(((6-Amino-2-methylpyridin-3-yl)methyl)amino)-1-oxopropan-2-yl)-4-(1-phenylcyclopropyl)pyrrolidine-2-carboxamide Di-trifluoroacetate salt] | < 0.5 µM | < 0.5 µM | **** (≥100-fold) | – | – | 2.5 to 10 µM | – |
| C[C@H](NC(=O)[C@@H](CCc1ccccc1)NCCc1cccc(O)c1)C(=O)NCc1ccc(C(=N)N)cc1 [compound 1330, (R)—N—((S)-1-((4-Carbamimidoylbenzyl)amino)-1-oxopropan-2-yl)-2-((3-hydroxyphenethyl)amino)-4-phenylbutanamide Di-trifluoroacetate salt] | < 0.5 µM | < 0.5 µM | *** (≥25 to <100-fold) | < 0.5 µM | – | – | – |
